Results on one compound are retold here after ChEMBL document CHEMBL5154845, “Dual-acting antitumor agents targeting the A2A adenosine receptor and histone deacetylases: Design and synthesis of 4-(furan-2-yl)-1H-pyrazolo[3,4-d]pyrimidin-6-amine derivatives” (Eur J Med Chem, 2022).

In general, IC50 refers to the concentration at which inhibition is half-maximal. A word on the GI50: it is the concentration giving 50% growth inhibition. Usually Cmax stands for the maximum level reached in the sampled fluid or tissue. By AUC(0-t) is commonly meant the area under the concentration-time curve up to a stated or last time point. A low value points to less exposure. The term MRT denotes the average time that molecules of a dose stay in the body. What is called half-life is the time needed for the level to fall by half in the phase considered. As a reminder, the Vdss is the apparent volume that relates the amount in the body to the concentration in plasma or blood. Lower therefore signals confinement near the circulation. By Tmax is commonly meant the time at which the peak concentration occurs. For orientation: Ki means a dissociation constant, usually derived from enzyme kinetics or from competition with a known ligand. Read a high Ki as lower affinity.

The source made the active and inactive calls.

Data set [1] deals with Histone deacetylase 1 (Homo sapiens, UniProt Q13547). Nature of the data set: Inhibition of HDAC1 (unknown origin) using trypsin and LGK(Ac)-AMC as substrates incubated for 1 hr and measured by fluorescence assay.
For data set [2], the system named is MC-38. Briefly: Antiproliferative activity against mouse MC38 cells after 72 hrs by CCK-8 assay. The data set is classed as functional.
In data set [3] the test system is MC38. Nature of the data set: Inhibition of HDAC in mouse MC38 cells assessed as increase in H4 acetylation at 0.1 to 5 uM measured by western blot analysis. Particulars: dose 0.1-5 µM. In kind it is cell-based. (In general: A western blot detects proteins with antibodies after separation by electrophoresis.)
Data set [4] can be described thus: Elimination rate constant in male ICR mouse at 20 mg/kg, po measured up to 24 hrs by LC-MS/MS analysis. The data set is classed as ADME, organism-based. Particulars: in vivo.
A short description of data set [5]: Cmax in male ICR mouse at 20 mg/kg, po measured up to 24 hrs by LC-MS/MS analysis. In kind it is ADME, organism-based. On the set-up: time < 24 hrs, dose 20 mg/kg, route po. Particulars: in vivo.
Data set [6] in a line: AUC (0 to t) in male ICR mouse at 20 mg/kg, po measured up to 24 hrs by LC-MS/MS analysis. Particulars: in vivo. The data set is classed as ADME, organism-based. On the set-up: time < 24 hrs, dose 20 mg/kg, route po.
Data set [7] in a line: Mean residence time in male ICR mouse at 20 mg/kg, po measured up to 24 hrs by LC-MS/MS analysis. In kind it is ADME, organism-based. Particulars: in vivo.
Data set [8] is described as follows: Half-life in male ICR mouse at 5 mg/kg, iv measured up to 24 hrs by LC-MS/MS analysis. In kind it is ADME, organism-based. Particulars: in vivo.
The nature of data set [9]: Cmax in male ICR mouse at 5 mg/kg, iv measured up to 24 hrs by LC-MS/MS analysis. The data set is classed as ADME, organism-based. On the set-up: dose 5 mg/kg, time < 24 hrs, route iv. Particulars: in vivo.
Data set [10] can be described thus: Initial plasma concentration in male ICR mouse at 5 mg/kg, iv measured up to 24 hrs by LC-MS/MS analysis. In kind it is ADME, organism-based.
Data set [11] can be described thus: AUC (0 to t) in male ICR mouse at 5 mg/kg, iv measured up to 24 hrs by LC-MS/MS analysis. In kind it is ADME, organism-based. The settings on record: in vivo. On the set-up: time < 24 hrs, dose 5 mg/kg, route iv.
A short description of data set [12]: Mean residence time in male ICR mouse at 5 mg/kg, iv measured up to 24 hrs by LC-MS/MS analysis. In kind it is ADME, organism-based. Particulars: in vivo.
Data set [13] in a line: Volume of distribution at steady state in male ICR mouse at 5 mg/kg, iv measured up to 24 hrs by LC-MS/MS analysis. Particulars: in vivo. In kind it is ADME, organism-based.
Data set [14] can be described thus: Half-life in male ICR mouse at 20 mg/kg, ip measured up to 24 hrs by LC-MS/MS analysis. In kind it is ADME, organism-based. The settings on record: in vivo.
The nature of data set [15]: Tmax in male ICR mouse at 20 mg/kg, ip measured up to 24 hrs by LC-MS/MS analysis. Particulars: in vivo. The data set is classed as ADME, organism-based.
Data set [16] is described as follows: Mean residence time in male ICR mouse at 20 mg/kg, ip measured up to 24 hrs by LC-MS/MS analysis. The data set is classed as ADME, organism-based. The settings on record: in vivo.
The target in data set [17] is T1, Adenosine receptor A1 (Homo sapiens, UniProt P30542).
T1 sequence (P30542 whole entry): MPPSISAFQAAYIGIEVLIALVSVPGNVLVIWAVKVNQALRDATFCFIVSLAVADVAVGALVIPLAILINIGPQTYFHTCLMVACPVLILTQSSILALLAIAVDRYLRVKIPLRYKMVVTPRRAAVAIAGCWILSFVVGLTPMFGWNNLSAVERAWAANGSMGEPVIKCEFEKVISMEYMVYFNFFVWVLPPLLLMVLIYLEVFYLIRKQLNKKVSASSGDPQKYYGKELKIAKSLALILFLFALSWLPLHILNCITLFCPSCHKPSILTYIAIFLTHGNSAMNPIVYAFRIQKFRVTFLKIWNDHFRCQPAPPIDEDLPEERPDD
Nature of the data set: Displacement of [3H]DPCPX from human A1AR incubated for 60 mins by scintillation counter analysis. Background: Displacement assays read how much labelled ligand stays bound in the presence of the test substance.

The target in data set [18] is T2, Adenosine receptor A3 (Homo sapiens, UniProt P0DMS8).
T2 sequence (P0DMS8 whole entry): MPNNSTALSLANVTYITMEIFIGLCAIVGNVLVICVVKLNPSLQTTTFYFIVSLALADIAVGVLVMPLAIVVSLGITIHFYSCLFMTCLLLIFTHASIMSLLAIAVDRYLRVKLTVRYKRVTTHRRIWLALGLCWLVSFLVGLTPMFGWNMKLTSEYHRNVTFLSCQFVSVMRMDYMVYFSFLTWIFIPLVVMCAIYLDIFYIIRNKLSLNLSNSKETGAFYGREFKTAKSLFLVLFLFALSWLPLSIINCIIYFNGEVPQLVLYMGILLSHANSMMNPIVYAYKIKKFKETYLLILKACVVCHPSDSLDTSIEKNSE
Nature of the data set: Displacement of [3H]HEMADO from human A3AR incubated for 60 mins by scintillation counter analysis.

Data set [19] deals with Histone deacetylase 3 (Homo sapiens, UniProt O15379). Nature of the data set: Inhibition of HDAC3 (unknown origin) using trypsin and LGK(Ac)-AMC as substrates incubated for 1 hr and measured by fluorescence assay.
Data set [20] has as its target T3, Histone deacetylase 8 (Homo sapiens, UniProt Q9BY41).
T3 sequence (Q9BY41 whole entry): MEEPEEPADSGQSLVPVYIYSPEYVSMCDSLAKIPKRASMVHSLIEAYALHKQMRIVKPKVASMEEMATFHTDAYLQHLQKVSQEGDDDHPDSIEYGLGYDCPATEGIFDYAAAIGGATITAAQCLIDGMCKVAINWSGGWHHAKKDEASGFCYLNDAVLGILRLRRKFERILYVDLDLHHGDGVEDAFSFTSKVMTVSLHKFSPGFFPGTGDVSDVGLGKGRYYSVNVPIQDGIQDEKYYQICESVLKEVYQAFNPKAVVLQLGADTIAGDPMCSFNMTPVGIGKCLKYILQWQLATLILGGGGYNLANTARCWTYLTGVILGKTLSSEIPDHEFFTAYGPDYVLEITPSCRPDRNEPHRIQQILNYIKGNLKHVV
Nature of the data set: Inhibition of HDAC8 (unknown origin) using trypsin and LGK(Ac)-AMC as substrates incubated for 1 hr and measured by fluorescence assay.

In data set [21] the test system is MC-38. Nature of the data set: Antitumor activity against mouse MC38 cells xenografted in C57 mouse assessed as tumor growth inhibition at 90 mg/kg, po administered twice a day. In kind it is functional. Particulars: read-out: TGI.
Data set [22] deals with MC-38. Nature of the data set: Antitumor activity against mouse MC38 cells xenografted in C57 mouse assessed as tumor growth inhibition at 150 mg/kg, po administered once a day. The data set is classed as functional. The settings on record: read-out: TGI.
The subject of data set [23] is MC-38. Briefly: Antitumor activity against mouse MC38 cells xenografted in C57 mouse assessed as tumor growth inhibition at 60 mg/kg, ip administered twice a day. The data set is classed as functional. Particulars: read-out: TGI.

Chain of Histone deacetylase 1 (Q13547 whole entry): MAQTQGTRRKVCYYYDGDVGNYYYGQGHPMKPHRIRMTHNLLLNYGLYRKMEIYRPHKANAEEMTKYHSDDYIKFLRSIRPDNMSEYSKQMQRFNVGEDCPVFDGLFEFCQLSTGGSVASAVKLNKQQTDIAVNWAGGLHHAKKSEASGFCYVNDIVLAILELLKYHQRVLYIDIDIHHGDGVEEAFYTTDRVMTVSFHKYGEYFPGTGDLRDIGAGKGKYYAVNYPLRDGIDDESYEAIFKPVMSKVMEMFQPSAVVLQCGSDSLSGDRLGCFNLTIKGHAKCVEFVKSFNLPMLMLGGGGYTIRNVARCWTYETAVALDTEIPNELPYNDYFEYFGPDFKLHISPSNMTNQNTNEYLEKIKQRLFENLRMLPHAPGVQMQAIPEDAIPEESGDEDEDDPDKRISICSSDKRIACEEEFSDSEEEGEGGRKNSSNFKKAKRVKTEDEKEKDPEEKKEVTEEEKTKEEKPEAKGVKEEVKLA
Chain of Histone deacetylase 3 (O15379 whole entry): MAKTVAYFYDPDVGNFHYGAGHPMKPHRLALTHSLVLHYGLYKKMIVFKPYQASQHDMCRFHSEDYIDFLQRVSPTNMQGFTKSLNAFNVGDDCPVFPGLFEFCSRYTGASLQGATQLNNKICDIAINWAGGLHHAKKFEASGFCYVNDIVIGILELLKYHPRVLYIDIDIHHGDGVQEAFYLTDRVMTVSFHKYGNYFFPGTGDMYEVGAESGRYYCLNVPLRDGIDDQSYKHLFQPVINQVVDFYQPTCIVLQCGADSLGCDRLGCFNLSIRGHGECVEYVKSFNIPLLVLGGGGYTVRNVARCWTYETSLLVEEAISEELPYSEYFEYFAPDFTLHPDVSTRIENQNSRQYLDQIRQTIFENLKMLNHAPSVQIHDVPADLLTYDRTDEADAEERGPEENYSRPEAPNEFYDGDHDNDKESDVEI

In the case of `Nc1nc(-c2ccco2)c2cnn(CCc3ccc(C(=O)Nc4ccccc4N)cc3)c2n1`, the concentration for half-maximal inhibition (IC50) was 145 nM in data set [1], 444 nM in data set [19] and more than 10000 nM in [20]. Besides, it took 290 nM to inhibit growth in data set [2] by half (GI50). Moreover, the inhibition entry in data set [3] is “Active”. This compound also gave a k el at 24 h in [4] of 0.000108 s⁻¹. Further, the Cmax in data set [5] was determined as 3420 ng/mL; in [9], 4700 ng/mL. In data set [6], this compound showed an exposure AUC(0-t) at 24 h of 3600 ng·h/mL. Further, the MRT turned out to be 77.4 min in data set [7], 23.4 min in [12] and 57 min in data set [16]. The half-life in data set [8] is 23.3 min; in data set [14], 49.8 min. Further, in [10], the C0 at 24 h was 6500 ng/mL. The same compound gave an AUCt in [11] of 2098 ng·h/mL. In data set [13], this compound showed a distribution volume (Vdss) of 0.92 L/kg. Moreover, the time of peak concentration (Tmax) in data set [15] was determined as 15 min. For the same compound, the values for the Ki in data set [17] and in data set [18] were 503 nM and more than 10000 nM, respectively. In data set [21], the inhibition in vivo at 90 mg/kg came to 44%. The inhibition in vivo at 150 mg/kg in data set [22] worked out at 26%. In addition, the inhibition in vivo at 60 mg/kg in [23] is 85%.
